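Cells were grown in 96-well plates and exposed to each compound for 48 hours at five concentrations; endpoints were interpolated linearly between bracketing concentrations, or set to the highest concentration if not reached. GI50 marks 50% less growth.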 Calls of active or inactive are those of the source. No stated cut-off is given here; in the data, active = GI50 up to about 1.1 µM and inactive = higher.

Holding throughout (assay): NCI tumour cell line growth inhibition, 48 h
Assay [1] concerns A549.
Assay [2] deals with OVCAR-5.
In assay [3] the test system is SK-MEL-2.
For assay [4], the system named is CCRF-CEM.
In assay [5] the test system is K562.
Assay [6] concerns NCI-H522.
Assay [7] relates to HCT-116.
Assay [8] deals with T47D.
Assay [9] relates to SF-268.
Assay [10] concerns COLO 205.
Assay [11] relates to MDA-MB-231.
The test system of assay [12] is HOP-62.
For assay [13], the system named is SF-295.
Assay [14] concerns SN12C.
The test system of assay [15] is 786-0.
The subject of assay [16] is NCI/ADR-RES.
Assay [17] deals with UACC-62.
The subject of assay [18] is LOX IMVI.

Regarding `CC1(C)C(=O)N(O)C(C)(C)N1N=O`, the GI50 in assay [1], in assay [2], in [3], in assay [4], in [5] and in [6] was > 10 µM (inactive) in each case. Also, the GI50 in [7], in [8], in assay [9], in assay [10], in assay [11] and in [12] was > 10 µM (inactive) throughout. Besides, the GI50 in assay [13], in assay [14], in assay [15] and in [16] was > 10 µM (inactive) in each case.
Take `O=C(NOC(=O)c1ccc([N+](=O)[O-])cc1)c1ccc(Cl)cc1`: the GI50 in assay [1] is > 100 µM (inactive); in [2], > 100 µM (inactive); in assay [3] it was > 100 µM (inactive); in [4] it was 28.2 µM (inactive); in [5], 21.6 µM (inactive); in assay [6], 27 µM (inactive). The GI50 is > 100 µM (inactive) in assay [7]; > 100 µM (inactive) in assay [9]; 36.2 µM (inactive) in [17]; > 100 µM (inactive) in assay [10]; > 100 µM (inactive) in assay [12]; > 100 µM (inactive) in assay [13]. Also, the figures for the GI50 in [18], in [14] and in assay [15] were 6.87 µM (inactive), 62.4 µM (inactive) and 54.6 µM (inactive), respectively.
Regarding `Cc1cc2c(C=O)n[nH]c2c(C#N)c1C`, the GI50 in [1] is > 100 µM (inactive); in assay [2], > 100 µM (inactive); in assay [3], > 100 µM (inactive); in assay [4] it was > 100 µM (inactive); in assay [5] it was > 100 µM (inactive); in [6], 10.4 µM (inactive). Moreover, the GI50 in [7] was 30.4 µM (inactive); in [9], 31.9 µM (inactive); in [17], 43.3 µM (inactive); in [10], > 100 µM (inactive); in assay [12] it was > 100 µM (inactive); in assay [13], 44.1 µM (inactive). Moreover, the figures for the GI50 in assay [18], in assay [14] and in assay [15] were 39.4 µM (inactive), 29.3 µM (inactive) and > 100 µM (inactive), respectively.
Consider `Nc1ccc2nc(NCc3ccc(F)cc3)cnc2c1`, for which the GI50 in [1], in assay [2], in [3], in [4], in assay [5] and in [6] was > 100 µM (inactive) throughout. The GI50 in [7], in assay [9], in assay [17], in [10], in assay [12] and in assay [13] was > 100 µM (inactive) in each case. Also, the GI50 in assay [18], in assay [14] and in assay [15] was > 100 µM (inactive) in each case.
In the case of `CCOC(=O)NC1C2CC(=O)OC(O2)C1OC(C)=O` (stereo unspecified), the GI50 in [1], in assay [2], in assay [3], in assay [4], in assay [5] and in assay [6] was > 100 µM (inactive) in each case. Moreover, the GI50 in assay [7], in [9], in [17], in assay [10], in assay [12] and in [13] was > 100 µM (inactive) each time. Moreover, the GI50 is > 100 µM (inactive) in assay [18], 99.3 µM (inactive) in assay [14] and > 100 µM (inactive) in assay [15].
Turning to `Cc1c2nc3ccccc3sc-2cc(=O)c1C`, the GI50 in [1] is 48.8 µM (inactive); in [2], > 95.5 µM (inactive); in assay [3] it was 14.4 µM (inactive); in assay [4] it was 20.9 µM (inactive); in [5], 24.3 µM (inactive); in assay [6], > 57.3 µM (inactive). For the same compound, the GI50 was 12.7 µM (inactive) in assay [7]; 25.6 µM (inactive) in assay [9]; 15.5 µM (inactive) in assay [17]; 34.7 µM (inactive) in assay [10]; > 100 µM (inactive) in [12]; 61.2 µM (inactive) in assay [13]. Moreover, the values for the GI50 in assay [18], in [14] and in assay [15] were 29.8 µM (inactive), > 10 µM (inactive) and > 100 µM (inactive), respectively.
In the case of `Clc1ccc(-c2c(C3=NCCN3)nnn2-c2ccc(Cl)cc2)cc1`, the GI50 in [1] is 53.2 µM (inactive); in assay [2], 33 µM (inactive); in [3], 13.1 µM (inactive); in [4], 22.6 µM (inactive); in assay [5] it was 18 µM (inactive); in assay [6], 16 µM (inactive). In addition, the GI50 in assay [7] is 15 µM (inactive); in [9], 32.2 µM (inactive); in assay [17] it was 18.1 µM (inactive); in [10] it was 12.6 µM (inactive); in assay [12], 53.1 µM (inactive); in [13], 19.5 µM (inactive). For the same compound, the figures for the GI50 in assay [18], in assay [14] and in assay [15] were 39.4 µM (inactive), 71.4 µM (inactive) and 21.8 µM (inactive), respectively.
Take `Nc1ncnc2c1ncn2C1OC(CSC(F)(F)F)C(O)C1O` (stereo unspecified): the GI50 in assay [1], in assay [2], in assay [3], in assay [4], in assay [5] and in assay [6] was > 100 µM (inactive) throughout. The GI50 in assay [7], in assay [9], in [17], in assay [10], in assay [12] and in assay [13] was > 100 µM (inactive) each time. For the same compound, the GI50 in [18], in assay [14] and in assay [15] was > 100 µM (inactive) each time.
Turning to `Cc1ccc(C(C2C(=O)N(C)C(=O)N(C)C2=O)C(F)(F)C(=O)N(C)C)cc1` (stereo unspecified), the GI50 in assay [1], in assay [2], in assay [3], in assay [4], in [7] and in assay [8] was > 100 µM (inactive) in each case. For the same compound, the GI50 in assay [9], in [17], in assay [10], in assay [11], in [12] and in [13] was > 100 µM (inactive) throughout. Also, the GI50 in [18], in assay [15] and in [16] was > 100 µM (inactive) each time.
In the case of `COc1cccc(-c2cc(O)c3cc4c(cc3n2)OCO4)c1`, the GI50 was 0.313 µM (active) in [1]; 0.251 µM (active) in assay [2]; 0.057 µM (active) in assay [3]; 0.0757 µM (active) in assay [4]; 0.0446 µM (active) in [5]; 0.0238 µM (active) in assay [6]. In addition, the GI50 is 0.0902 µM (active) in assay [7]; 0.731 µM (active) in assay [9]; 0.0531 µM (active) in assay [17]; 0.132 µM (active) in assay [10]; 0.116 µM (active) in [12]; 0.0818 µM (active) in assay [13]. Moreover, the GI50 in assay [18] was 0.0857 µM (active); in assay [14] it was 0.294 µM (active); in assay [15], 0.107 µM (active).
Regarding `CCN(CC)CCOc1ccc(C(O)(Cc2ccc(OC)cc2)c2ccccc2)cc1` (stereo unspecified), the GI50 in [1] is 21.8 µM (inactive); in assay [2], 20 µM (inactive); in [3], 14.9 µM (inactive); in [4], 17.6 µM (inactive); in [5], 4.39 µM (inactive); in assay [6], 20.5 µM (inactive). Besides, the GI50 in assay [7] is 13.8 µM (inactive); in [9], 21.5 µM (inactive); in assay [17], 16.7 µM (inactive); in [10], 12 µM (inactive); in assay [12], 15.9 µM (inactive); in assay [13] it was 17.7 µM (inactive). Moreover, the results for the GI50 in [18], in [14] and in assay [15] were 14.3 µM (inactive), 27.9 µM (inactive) and 17.3 µM (inactive), respectively.
On to `CCCCCCCCCCCCCC(=O)O[C@H]1CC[C@H](NC(=O)[C@H](OC)[C@H](O)[C@@H](O)[C@H](O)/C=C/C(C)C)C(=O)N(C)C1` [BENGAMIDE B], for which the GI50 is < 0.0015 µM (active) in [1]; 4.65 µM (inactive) in assay [2]; 0.0334 µM (active) in assay [3]; 0.0122 µM (active) in assay [4]; 0.00811 µM (active) in assay [5]; 0.00577 µM (active) in assay [6]. For the same compound, the GI50 is 0.00247 µM (active) in [7]; 0.0036 µM (active) in assay [9]; 0.00807 µM (active) in assay [17]; 0.00259 µM (active) in assay [10]; 0.00809 µM (active) in assay [12]; 0.00675 µM (active) in assay [13]. The GI50 is 0.00216 µM (active) in assay [18], 0.00419 µM (active) in [14] and 0.00457 µM (active) in assay [15].
On to `O=C(O)/C=C/c1ccc(O)c(O)c1` [CAFFEIC ACID], for which the GI50 in assay [1] is > 100 µM (inactive); in [2] it was > 100 µM (inactive); in [3] it was > 100 µM (inactive); in assay [4] it was > 57.5 µM (inactive); in [5], > 100 µM (inactive); in [6], 97.5 µM (inactive). Besides, the GI50 in assay [7], in assay [9], in assay [17], in assay [10], in [12] and in assay [13] was > 100 µM (inactive) throughout. In addition, the GI50 in assay [18], in assay [14] and in assay [15] was > 100 µM (inactive) in each case.

Source of the values: ChEMBL document CHEMBL1201862, “PubChem BioAssay data set” (2004).
